Laboratory results as given in EP0108170A1, “3-Benzazepines as alpha-2 antagonists” (SMITHKLINE BECKMAN CORPORATION, priority 1982, dated 1984).

Assays:
alpha2 = experiment: prejunctional alpha2 antagonist activity, isolated superfused guinea pig left atrium (shift of clonidine concentration-response curve); type: cell-based
Procedure: Briefly, the heart is removed from a pentobarbital-anesthetized male guinea pig. The left atrium is removed, dissected free of extraneous tissue and mounted in a 2 ml. superfusion chamber. The tissue is paced at 60 pulse/minute and the sympathetic nerves excited at 6 minute intervals by field stimulation. The response to nerve stimulation is measured as the difference in contractile force between the basal contraction and peak contraction following a nerve stimulation. A concentration-response curve for clonidine (alpha2 agonist) is prepared by administering an increasing concentration of clonidine following each successive stimulation. The tissue is then superfused with the alpha2 antagonist to be tested for thirty minutes and the clonidine concentration-effect curve was repeated in the presence of antagonist. The receptor dissociation constant of the antagonist (KB) is defined as the antagonist concentration required to shift the log concentration-response curve of the agonist to the right by a factor of 2.

[1] = tested on: normotensive and hypertensive rats; experiment: antihypertensive activity in vivo, blood pressure in conscious cannulated rats; conditions: for effect on diastolic blood pressure: i.v. administration
Procedure: Cannulas are run intradermally so as to be externalized in the dorso-sacral area of either side and kept in place by wound clips. The rats are allowed to regain consciousness after being placed in a small animal restrainer. The arterial cannula is connected to a pressure transducer for constant blood pressure and heart rate monitoring. Drugs are administered either orally via gavage or i.v. via the femoral vein cannula at a rate of 0.06 ml./minute.
The above test is conducted on both normotensive and hypertensive rats. DOCA Salt hypertensive rats are prepared from male uninephrectomized Sprague-Dawley rats. The rats, approximately six weeks of age, are lightly anesthetized with ether and subcutaneously implanted with a 25 mg. deoxycorticosterone acetate pellet in the left dorso-sacral area..Six days later a second pellet is implanted in the right dorso-sacral area. These rats are fed a normal laboratory diet, but are given 1% saline - solution to drink in place of water. The rats are kept on the saline drinking water for 22-24 days.
The following table sets forth the effect of 6-chloro-2,3,4,5-tetrahydro-3-methyl-lH-3-benzazepine on blood pressure after i.v. administration to both normotensive and hypertensive rats.

rabbit = experiment: normal rabbit intraocular pressure determination (applanation pneumatonograph); type: in vivo; conditions: given systemically

| SMILES | alpha2 antagonist activity relative to the 6-chloro derivative (alpha2; fraction of the activity of the 6-chloro derivative) | Kb (alpha2; isolated perfused guinea pig left atrium, antagonist concentration shifting clonidine curve to the right by a factor of 2) | effect on diastolic blood pressure ([1]; DOCA Salt hypertensive rats) | antihypertensive effect, dose dependence ([1]; comparison of the 0.5 mg./kg. and 1.0 mg./kg. doses, i.v.) | effect on diastolic blood pressure ([1]; normotensive rats) | effect on diastolic blood pressure ([1]; spontaneously hypertensive rats) | effect on systemic blood pressure (rabbit) |
| --- | --- | --- | --- | --- | --- | --- | --- |
| CN1CCc2ccc(Cl)cc2CC1 [7-chloro-2,3,4,5-tetrahydro-3-methyl-lH-3-benzazepine, reference compound] | about one tenth |  |  |  |  |  |  |
| CN1CCc2cccc(Cl)c2CC1 [6-chloro-2,3,4,5-tetrahydro-3-methyl-lH-3-benzazepine] |  | 0.013 µM | marked drop | dose- related | little effect | marked drop | no significant effect |
